According to patent publication US20120122896A1, “2,1,3-BENZOXADIAZOL DERIVATIVES FOR THE INHIBITION OF INFLUENZA A AND B VIRUS AND RESPIRATORY SYNCYTIAL VIRUS REPLICATION” (PIKE PHARMA GMBH, priority 2009, published 2012):
Where two headings read alike, the source gives them in different places.

Columns and labels:
[1] = target: interaction between PB1 and PA (Influenza A virus, UniProt P03433); assay: biochemical; type: binding; settings: for IC50: calculated from inhibition at maximum obtainable concentration where solubility too low, read-out: IC50 [μM] (ELISA); for inhibition at 1000 µM: highest concentration used, read-out: Max. Inhibition (ELISA) at 1000 μM
RSV (Long strain) = assay: RSV induced cell death reduction in HEp-2 cells; type: cell-based, respiratory syncytial virus; settings: for RSV activity, Maximum inhibition (in words): serial dilution 100 to 0.14 μM, 72 h; for inhibition at 33 µM: HEp-2, read-out: RSV activity, Maximum inhibition
[2] = human respiratory syncytial virus, HEp-2
[3] = human respiratory syncytial virus, HEp-2, read-out: RSV activity, Maximum inhibition
[4] = human respiratory syncytial virus

| SMILES | Active in ELISA ([1]; prescreening) | RSV activity, Maximum inhibition (in words) (RSV (Long strain)) | inhibition of RSV replication (summary in words) (RSV (Long strain)) | also measured |
| --- | --- | --- | --- | --- |
| COc1ccc(CSc2ccc([N+](=O)[O-])c3nonc23)cc1 [PKE060, 4-[(4-methoxybenzyl)thio]-7-nitro-2,1,3-benzoxadiazole] | Yes | – | – | – |
| COc1ccc(S(=O)(=O)OCCSc2ccc([N+](=O)[O-])c3nonc23)cc1 [PKE061, 2-[(7-nitro-2,1,3-benzoxadiazol-4-yl)thio]ethyl 4-methoxybenzene-1-sulfonate] | Yes | inactive | – | IC50 [1]: > 1000 µM; inhibition at 1000 µM [1]: 37% |
| Cc1ccc(Sc2ccc([N+](=O)[O-])c3nonc23)cc1 [PKE068, 4-[(4-methylphenyl)thio]-7-nitro-2,1,3-benzoxadiazole] | Yes | – | – | IC50 [1]: > 1000 µM; inhibition at 1000 µM [1]: 46% |
| COc1ccc(Nc2ccc([N+](=O)[O-])c3nonc23)cc1 [PKE069, N4-(4-methoxyphenyl)-7-nitro-2,1,3-benzoxadiazol-4-amine] | No | inactive | – | – |
| O=[N+]([O-])c1ccc(Nc2ccc(F)cc2)c2nonc12 [PKE070, N4-(4-fluorophenyl)-7-nitro-2,1,3-benzoxadiazol-4-amine] | No | – | effective | IC50 (RSV (Long strain); [2]): 4 µM; inhibition at 11 µM (RSV (Long strain); [3]): 75% |
| O=[N+]([O-])c1ccc(Nc2cccc(F)c2)c2nonc12 [PKE071, N4-(3-fluorophenyl)-7-nitro-2,1,3-benzoxadiazol-4-amine] | No | – | effective | IC50 (RSV (Long strain); [2]): 4 µM; inhibition at 11 µM (RSV (Long strain); [3]): 73% |
| O=[N+]([O-])c1ccc(N2CCCC2)c2nonc12 [PKE072, 4-nitro-7-tetrahydro-1H-pyrrol-1-yl-2,1,3-benzoxadiazole] | – | – | effective | Active in ELISA [1]: No; inhibition at 33 µM (RSV (Long strain); [4]): 44% |
| O=[N+]([O-])c1ccc(NCc2cccs2)c2nonc12 [PKE073, N4-(2-thienylmethyl)-7-nitro-2,1,3-benzoxadiazol-4-amine] | – | – | effective | Active in ELISA [1]: No; inhibition at 33 µM (RSV (Long strain); [4]): 42% |
| Cc1ccc(Nc2ccc([N+](=O)[O-])c3nonc23)cc1 [PKE074, N4-(4-methylphenyl)-7-nitro-2,1,3-benzoxadiazol-4-amine] | No | – | – | – |
| O=[N+]([O-])c1ccc(Sc2ccc(Cl)cc2Cl)c2nonc12 [PKE075, 4-[(2,4-dichlorophenyl)thio]-7-nitro-2,1,3-benzoxadiazole] | Yes | – | – | IC50 [1]: > 1000 µM; inhibition at 1000 µM [1]: 35% |
| O=[N+]([O-])c1ccc(SCCO)c2nonc12 [PKE076, 2-[(7-nitro-2,1,3-benzoxadiazol-4-yl)thio]ethan-1-ol] | – | inactive | – | – |
| Cc1ccc(CSc2ccc([N+](=O)[O-])c3nonc23)cc1 [PKE077, 4-[(4-methylbenzyl)thio]-7-nitro-2,1,3-benzoxadiazole] | Yes | inactive | – | IC50 [1]: > 1000 µM; inhibition at 1000 µM [1]: 33% |
| Cc1cccc(Nc2ccc([N+](=O)[O-])c3nonc23)c1 [PKE078, N4-(3-methylphenyl)-7-nitro-2,1,3-benzoxadiazol-4-amine] | No | – | effective | IC50 (RSV (Long strain); [2]): 6 µM; inhibition at 11 µM (RSV (Long strain); [3]): 56% |
| O=[N+]([O-])c1ccc(Sc2cccc(Cl)c2)c2nonc12 [PKE080, 4-[(3-chlorophenyl)thio]-7-nitro-2,1,3-benzoxadiazole] | Yes | – | – | IC50 [1]: 60 µM |
| O=C(OCCSc1ccc([N+](=O)[O-])c2nonc12)c1ccc(Cl)cc1Cl [PKE081, 2-[(7-nitro-2,1,3-benzoxadiazol-4-yl)thio]ethyl 2,4-dichlorobenzoate] | No | – | – | – |
| COc1ccc(C(=O)OCCSc2ccc([N+](=O)[O-])c3nonc23)cc1 [PKE082, 2-[(7-nitro-2,1,3-benzoxadiazol-4-yl)thio]ethyl-4-methoxybenzoate] | Yes | – | – | IC50 [1]: 100 µM |

| SMILES | Active in ELISA ([1]; prescreening) | RSV activity, Maximum inhibition (in words) (RSV (Long strain)) | inhibition of RSV replication (summary in words) (RSV (Long strain)) | also measured |
| --- | --- | --- | --- | --- |
| O=C(OCCSc1ccc([N+](=O)[O-])c2nonc12)c1ccccc1 [PKE083, 2-[(7-nitro-2,1,3-benzoxadiazol-4-yl)thio]ethyl benzoate] | No | inactive | – | – |
| Nc1nc(Sc2ccc([N+](=O)[O-])c3nonc23)c2[nH]cnc2n1 [PKE110, 6-[(4-nitro-2,1,3-benzoxadiazol-7-yl)sulfanyl]-7H-purin-2-amine] | No | inactive | – | – |
| O=[N+]([O-])c1ccc(Nc2ccccc2)c2nonc12 [PKE118, 4-nitro-N-phenyl-2,1,3-benzoxadiazol-7-amine] | No | – | effective | inhibition at 11 µM (RSV (Long strain); [3]): 44% |
| COc1ccc(Nc2ccc([N+](=O)[O-])c3nonc23)cc1 [PKE119, N-(4-methoxyphenyl)-4-nitro-2,1,3-benzoxadiazol-7-amine] | – | – | effective | inhibition at 11 µM (RSV (Long strain); [3]): 21% |
| O=[N+]([O-])c1ccc(Nc2ccc(Cl)cc2)c2nonc12 [PKE120, N-(4-chlorophenyl)-4-nitro-2,1,3-benzoxadiazol-7-amine] | No | – | effective | IC50 (RSV (Long strain); [2]): 2 µM; inhibition at 3.7 µM (RSV (Long strain); human respiratory syncytial virus, HEp-2, at 3.7 μM, read-out: RSV activity, Maximum inhibition): 67% |
| COc1ccc(CNc2ccc([N+](=O)[O-])c3nonc23)cc1 [PKE130, N-[(4-methoxyphenyl)methyl]-4-nitro-2,1,3-benzoxadiazol-7-amine] | – | – | effective | Active in ELISA [1]: No; inhibition at 33 µM (RSV (Long strain); [4]): 48% |
| Cc1ccccc1Nc1ccc([N+](=O)[O-])c2nonc12 [PKE131, N-(2-methylphenyl)-4-nitro-2,1,3-benzoxadiazol-7-amine] | No | – | effective | inhibition at 11 µM (RSV (Long strain); [3]): 48% |
| O=[N+]([O-])c1ccc(N2CCN(Cc3ccccc3)CC2)c2c1no[n+]2[O-] [PKE133, 4-nitro-1-oxido-7-[4-(phenylmethyl)piperazin-1-yl]-2,1,3-benzoxadiazol-1-ium] | No | inactive | – | – |
| CCCCN1CCN(c2ccc([N+](=O)[O-])c3no[n+]([O-])c23)CC1 [PKE134, 7-(4-butylpiperazin-1-yl)-4-nitro-1-oxido-2,1,3-benzoxadiazol-1-ium] | No | inactive | – | – |
| O=[N+]([O-])c1ccc(N2CCN(c3ccccc3)CC2)c2nonc12 [PKE135, 4-nitro-7-(4-phenylpiperazin-1-yl)-2,1,3-benzoxadiazole] | No | inactive | – | – |
| CCN(CC)CCCNc1ccc([N+](=O)[O-])c2no[n+]([O-])c12 [PKE136, N,N-diethyl-N′-(4-nitro-1-oxido-2,1,3-benzoxadiazol-1-ium-7-yl)propane-1,3-diamine] | No | inactive | – | – |
| O=[N+]([O-])c1ccc(Sc2ncnc3nc[nH]c23)c2nonc12 [PKE139, 4-nitro-7-(7H-purin-6-ylsulfanyl)-2,1,3-benzoxadiazole] | No | inactive | – | – |
| CC(C)(C)c1csc(-c2ccc3nonc3c2)n1 [PKE140, 5-[4-(tert-butyl)-1,3-thiazol-2-yl]-2,1,3-benzoxadiazole] | Yes | inactive | – | IC50 [1]: > 1000 µM; inhibition at 1000 µM [1]: 34% |
| O=[N+]([O-])c1c(NCc2ccccc2)ccc2nonc12 [PKE190, N-benzyl-4-nitro-2,1,3-benzoxadiazol-5-amine] | Yes | inactive | – | IC50 [1]: > 1000 µM; inhibition at 1000 µM [1]: 37% |
| CCN(CC)c1cc(Cl)c2nonc2c1[N+](=O)[O-] [PKE191, 7-chloro-N,N-diethyl-4-nitro-2,1,3-benzoxadiazol-5-amine] | No | – | effective | inhibition at 11 µM (RSV (Long strain); [3]): 20% |
| O=c1[nH]nc(Sc2ccccc2)c2nncn12 [PKE217, 8-phenylsulfanyl-6H-[1,2,4]triazolo[4,3-d][1,2,4]triazin-5-one] | No | – | – | – |
